Assay [1] deals with human gastric cancer NUGC-3 xenograft. The assay can be described thus: In vivo efficacy study in human gastric cancer NUGC-3 xenograft rat model. The arrangement: species or system B-Rag2/IL2rg KO SD rats. As to conditions: QD × 28 days, p.o., rats. The method, then:
1. Experimental purpose: To test the in vivo anti-tumor activity of compounds in the subcutaneous human gastric cancer NUGC-3 xenograft model in female B-Rag2/IL2rg KO SD rats. 2. Experimental materials: Animals: 7 to 9 weeks old female B-Rag2/IL2rg KO SD rats; Reagents:
Vehicle: 5% DMSO/10% Solutol HS 15/85% pH 4.65 ± 0.10 acetate buffer;
(§1) Cell culture: NUGC-3 cells were cultured in RPMI-1640 medium containing 10% FBS.
Molding and grouping: NUGC-3 cells in the exponential growth phase (1 × 10^7) were harvested, resuspended in 0.2 mL of PBS and Matrigel (1:1), and then inoculated subcutaneously into the right flank of B-Rag2/IL2rg KO SD rats to establish a subcutaneous xenograft model. Rats were observed daily for healthy status and tumor growth after cell inoculation. On the 10th day after inoculation, 24 animals were selected, grouped, and the tumor volume of the animals in the group was approximately 199.0 mm^3. The study was divided into 4 groups, with 6 rats in each group, and the administration was performed on the same day (see Table 12).
4. Experimental design: Table 12 is the grouping and administration information for the efficacy study. Rats in the G1 group were orally administered vehicle control (5% DMSO/10% Solutol HS 15/85% pH 4.65 ± 0.10 acetate buffer) once a day for a total of 28 days. Rats in the G2 group were orally administered Cpd-2 once a day at a dose of 6.25 mg/kg for a total of 28 days. Rats in the G3 group were orally administered Cpd-2 once a day at a dose of 12.5 mg/kg for a total of 28 days. Rats in the G4 group were orally administered Cpd-2 once a day at a dose of 25 mg/kg for a total of 28 days. Table 12. In vivo efficacy study design of NUGC-3 xenograft rat model
(§2) Experimental observation: The health status and mortality of the animals were monitored daily. Routine checks included the effect of tumor growth and drug treatment on animals' normal behavior such as mobility, food and water consumption, body weight gain/loss, eye/hair matting and any other abnormal effect. The number of deaths and side effects of the animals in the group were recorded based on the number of the animals in each group. Clinical symptoms observed during the trial were recorded in the raw data. Tumor volume calculation formula: Tumor volume (mm^3) = 0.5 × (tumor long diameter × tumor short diameter^2). During the research process, the entire administration process as well as tumor and body weight measurements were conducted in a Laminar Flow Cabinet.
Data processing: Percentage of tumor growth inhibition TGITV (%): TGITV % = (1 - ΔT/ΔC) × 100%; Wherein ΔC is the tumor volume Ct - C0 for the control group, C0 is the average tumor volume of the control group at the time of grouping, and Ct is the average tumor volume of the control group after treatment; ΔT is the tumor volume Tt - T0 for the treatment group, T0 is the average tumor volume of the treatment group at the time of grouping, and Tt is the average tumor volume of the treatment group after treatment.
Statistical analysis: Tumor volume and animal body weight results are expressed in Mean ± SEM. Tumor volumes between different groups were statistically compared and analyzed. All statistical analyses were completed in https://d2k.bio/Efficacy/Invivo. The wilcox.test nominal method was used to compare whether there was a significant difference in tumor volume or tumor weight between groups, where p ≥ 0.05 was considered as having no significant difference, p < 0.05 was considered as having a significant difference, and p < 0.01 was considered as having an extremely significant difference.

Assay [2] shares this test system. The assay can be described thus: In vivo efficacy study in human gastric cancer NUGC-3 xenograft mouse model. As to conditions: mice; for Tumor volume (mm^3) (at 19 days): Mean ± SEM. The arrangement: species or system NUNU mice. The method, then: 1. Experimental purpose: To test the in vivo anti-tumor activity of compounds in the subcutaneous human gastric cancer NUGC-3 xenograft model in female NUNU mice. 2. Experimental materials: Animals: 6 to 8 weeks old female NUNU mice; Reagents:
Cpd-A vehicle: 0.2% HPC, 0.5% Tween80 in water (w/v/v); Cpd-2 vehicle: 5% DMSO/10% Solutol HS 15/85% pH 4.65 ± 0.10 acetate buffer.
as §1
Molding and grouping: NUGC-3 cells in the exponential growth phase (5 × 10^6) were harvested, resuspended in 0.2 mL of PBS and Matrigel (1:1), and then inoculated subcutaneously into the right flank of NUNU mice to establish a subcutaneous xenograft model. Mice were observed daily for healthy status and tumor growth after cell inoculation. On the 5th day after inoculation, 36 animals were selected, grouped, and the tumor volume of the animals in the group was approximately 150.0 mm^3. The study was divided into 6 groups, with 6 mice in each group, and the administration was performed on the same day (see Table 10).
4. Experimental design: Table 10 is the grouping and administration information for the efficacy experiment. Mice in the G1 group were orally administered vehicle control (5% DMSO/10% Solutol HS 15/85% pH 4.65 ± 0.10 acetate buffer) once a day for a total of 19 days. Mice in the G2 group were orally administered Cpd-A once a day at a dose of 50 mg/kg for a total of 19 days. Mice in the G3 group were orally administered Cpd-A once a day at a dose of 100 mg/kg for a total of 19 days. Mice in the G4 group were orally administered Cpd-2 once a day at a dose of 25 mg/kg for a total of 19 days. Mice in the G5 group were orally administered Cpd-2 once a day at a dose of 50 mg/kg for a total of 19 days. Mice in the G6 group were orally administered Cpd-2 once a day at a dose of 100 mg/kg for a total of 19 days. Table 10. In vivo efficacy study design of NUGC-3 xenograft mouse model
as §2, with “included observing” for “included”
Statistical analysis: Tumor volume and animal body weight results are expressed in Mean ± SEM. Tumor volumes between different groups were statistically compared and analyzed. All statistical analyses were completed in GraphPad Prism 8.0. The one-way ANOVA method was used to compare whether there was a significant difference in tumor volume or tumor weight between groups, where p ≥ 0.05 was considered as having no significant difference, p < 0.05 was considered as having a significant difference, and p < 0.001 was considered as having an extremely significant difference.
On the technique in general: A xenograft is tissue or cells of one species grown in another, often human tumour cells in immunodeficient mice.

Structures are written as SMILES. Several values for one entry are separate records, joined by “and”; a condition that tells them apart may be missing. Equal entries are not always repeated.

In the case of `[2H]C([2H])([2H])Oc1nc(C(=O)NS(C)(=O)=O)ccc1NCC#Cc1cc2c(N[C@@H]3CCN(C)C[C@@H]3F)cccn2c1CC(F)(F)F` [Cpd-2, 5-((3-(8-(((3S,4R)-3-Fluoro-1-methylpiperidin-4-yl)amino)-3-(2,2,2-trifluoroethyl)indolizin-2-yl)prop-2-yn-1-yl)amino)-6-(methoxy-d3)-N-(methylsulfonyl)picolinamide], the “TGITV (%) (at 28 days)” value in assay [1] (6.25 mg/kg) was determined as 92.9%; in assay [1] (12.5 mg/kg), 102.9%; in assay [1] (25 mg/kg), 104.7%. Further, the “Tumor volume (mm^3) (Mean ± SEM) (at 28 days)” value is 395.0 mm^3 and 395.0 ± 63.1 mm^3 in assay [1] (6.25 mg/kg); 119.2 mm^3 and 119.2 ± 10.2 mm^3 in assay [1] (12.5 mg/kg); 70.1 mm^3 and 70.1 ± 14.9 mm^3 in assay [1] (25 mg/kg). Further, the “TGI (%) (at 19 days)” value is recorded as 65.1% in assay [2] (25 mg/kg PO QD*19 Days), 96.1% in assay [2] (50 mg/kg PO QD*19 Days) and 103.6% in assay [2] (100 mg/kg PO QD*19 Days). Besides, the “Tumor volume (mm^3) (at 19 days)” value in assay [2] (25 mg/kg PO QD*19 Days) is 615.1 mm^3 and 615.1 ± 157.6 mm^3; in assay [2] (50 mg/kg PO QD*19 Days) it was 202.2 mm^3 and 202.2 ± 57.9 mm^3; in assay [2] (100 mg/kg PO QD*19 Days) it was 102.5 mm^3 and 102.5 ± 42.1 mm^3.

The values are drawn from patent EP4796540A2, “N-SULFONAMIDE NITROGEN-CONTAINING FUSED HETEROCYCLIC COMPOUND, AND APPLICATION THEREOF” (priority 2023, dated 2025).
